Columns and labels:
Format in all cases: biochemical
[1] = target: T1, JAK1 (Homo sapiens, UniProt P23458); assay: JAK1 Inhibition Assay (Omnia kinase fluorescence peptide substrate); conditions: averaged IC50 ranges; 40 μM (Km app) or 1 mM ATP, 15 nM JAK1
T1 construct: purchased Invitrogen Corporation, Carlsbad, Calif; IVGN PV4775
Method in brief: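 15 nM JAK1, 8 μM Omnia Y12 peptide, 40 μM (Km app) or 1 mM ATP; 25 mM HEPES pH 7.4, 10 mM MgCl2, 2% DMSO. Fluorescence (ex 360/em 485 nm) read every 50 s over 45 min. IC50 by 4-parameter fit of percent of control, top dose 10 μM.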

[2] = target: T2, JAK2 (Homo sapiens, UniProt O60674); assay: JAK2 Inhibition Assay (Omnia kinase fluorescence peptide substrate); conditions: averaged IC50 ranges; 25 μM (Km app) or 1 mM ATP, 5 nM JAK2
T2 construct: purchased Invitrogen Corporation, Carlsbad, Calif; IVGN PV4288
T2 sequence (O60674 whole entry): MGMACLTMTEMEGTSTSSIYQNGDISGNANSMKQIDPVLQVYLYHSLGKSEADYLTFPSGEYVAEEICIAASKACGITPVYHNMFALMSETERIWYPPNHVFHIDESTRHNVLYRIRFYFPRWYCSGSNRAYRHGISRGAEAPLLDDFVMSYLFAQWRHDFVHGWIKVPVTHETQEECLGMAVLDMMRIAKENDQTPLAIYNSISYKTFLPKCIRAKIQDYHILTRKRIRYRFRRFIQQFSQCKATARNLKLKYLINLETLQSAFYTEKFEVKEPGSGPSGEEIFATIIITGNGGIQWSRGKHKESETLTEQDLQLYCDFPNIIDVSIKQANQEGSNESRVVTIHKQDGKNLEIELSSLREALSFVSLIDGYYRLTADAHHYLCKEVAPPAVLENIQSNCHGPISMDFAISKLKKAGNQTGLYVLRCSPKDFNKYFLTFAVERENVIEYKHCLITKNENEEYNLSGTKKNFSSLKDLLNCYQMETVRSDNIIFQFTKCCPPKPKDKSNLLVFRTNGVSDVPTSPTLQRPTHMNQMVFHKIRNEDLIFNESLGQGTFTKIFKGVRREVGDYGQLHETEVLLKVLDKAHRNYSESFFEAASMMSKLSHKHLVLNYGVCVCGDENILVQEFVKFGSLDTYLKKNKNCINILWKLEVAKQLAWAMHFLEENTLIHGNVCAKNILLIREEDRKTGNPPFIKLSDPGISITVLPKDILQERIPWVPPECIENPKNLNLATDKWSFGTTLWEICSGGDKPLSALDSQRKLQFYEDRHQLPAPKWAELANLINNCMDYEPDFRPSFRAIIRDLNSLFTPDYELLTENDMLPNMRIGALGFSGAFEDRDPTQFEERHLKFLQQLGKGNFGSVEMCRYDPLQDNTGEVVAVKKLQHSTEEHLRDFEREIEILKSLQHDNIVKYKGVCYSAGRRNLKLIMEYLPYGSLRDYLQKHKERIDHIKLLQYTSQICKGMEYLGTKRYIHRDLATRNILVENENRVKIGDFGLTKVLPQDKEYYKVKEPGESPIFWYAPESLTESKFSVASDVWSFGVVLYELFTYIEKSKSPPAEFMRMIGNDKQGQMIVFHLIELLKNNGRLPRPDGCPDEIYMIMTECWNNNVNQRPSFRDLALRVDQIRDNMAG

[3] = target: T3, JAK3 (Homo sapiens, UniProt P52333); assay: JAK3 Inhibition Assay (Omnia kinase fluorescence peptide substrate); conditions: averaged IC50 ranges; 10 μM (Km app) or 1 mM ATP, 2.5 nM JAK3
T3 construct: purchased Invitrogen Corporation, Carlsbad, Calif; IVGN PV4080
T3 sequence (P52333 1-1124): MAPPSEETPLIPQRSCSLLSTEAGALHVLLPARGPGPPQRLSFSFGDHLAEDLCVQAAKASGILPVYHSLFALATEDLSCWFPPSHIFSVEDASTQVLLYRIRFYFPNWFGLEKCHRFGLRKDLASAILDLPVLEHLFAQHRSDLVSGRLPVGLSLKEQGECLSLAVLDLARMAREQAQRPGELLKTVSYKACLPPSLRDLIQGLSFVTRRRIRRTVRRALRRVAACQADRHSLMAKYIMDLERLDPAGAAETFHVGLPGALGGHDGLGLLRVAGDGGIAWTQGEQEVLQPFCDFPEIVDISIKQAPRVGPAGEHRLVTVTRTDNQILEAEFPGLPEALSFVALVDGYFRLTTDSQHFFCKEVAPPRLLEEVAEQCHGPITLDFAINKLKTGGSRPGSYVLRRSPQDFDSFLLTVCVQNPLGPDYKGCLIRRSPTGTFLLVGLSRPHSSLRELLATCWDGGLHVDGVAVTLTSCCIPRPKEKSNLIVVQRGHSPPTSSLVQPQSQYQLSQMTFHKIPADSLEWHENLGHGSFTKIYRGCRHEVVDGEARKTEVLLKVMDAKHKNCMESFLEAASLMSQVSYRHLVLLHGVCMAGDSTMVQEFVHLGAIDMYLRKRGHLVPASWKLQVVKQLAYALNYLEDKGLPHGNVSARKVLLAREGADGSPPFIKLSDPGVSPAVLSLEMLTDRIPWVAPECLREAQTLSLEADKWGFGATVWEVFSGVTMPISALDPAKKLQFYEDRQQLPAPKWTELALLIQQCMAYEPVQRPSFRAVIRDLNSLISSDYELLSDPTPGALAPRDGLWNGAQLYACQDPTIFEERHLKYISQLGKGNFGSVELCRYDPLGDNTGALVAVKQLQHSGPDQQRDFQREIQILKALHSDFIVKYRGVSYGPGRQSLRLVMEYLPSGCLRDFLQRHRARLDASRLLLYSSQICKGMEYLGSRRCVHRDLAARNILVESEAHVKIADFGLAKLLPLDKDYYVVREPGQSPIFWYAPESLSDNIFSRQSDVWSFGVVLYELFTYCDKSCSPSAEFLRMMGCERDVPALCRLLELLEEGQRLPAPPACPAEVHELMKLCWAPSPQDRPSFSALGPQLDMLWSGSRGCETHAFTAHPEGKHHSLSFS
Method in brief: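 IC50 is the concentration giving 50 percent of control on a 4-parameter logistic fit of 10-point, 3-fold dilutions from a 10 μM top dose, at 2% final DMSO. Kinetic Sox fluorescence (360/485 nm) was monitored every 50 s for 45 min. Mix: JAK3 2.5 nM, Omnia Y7 peptide 10 μM, ATP 10 μM (Km app) or 1 mM, in HEPES pH 7.4 buffer with MgCl2, Triton X-100 and DTT.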

[4] = target: T4, Human Tyk2 kinase domain (Homo sapiens, UniProt P29597); assay: Tyk2 Inhibition Assay (Omnia kinase fluorescence peptide substrate); conditions: averaged IC50 ranges; 10 μM (Km app) or 1 mM ATP, 2 nM Tyk2
T4 construct: comprising amino acids 886 to 1187; His10 (10 histidine residues) (C, cleaved yes); made in house
T4 sequence (P29597 886-1187): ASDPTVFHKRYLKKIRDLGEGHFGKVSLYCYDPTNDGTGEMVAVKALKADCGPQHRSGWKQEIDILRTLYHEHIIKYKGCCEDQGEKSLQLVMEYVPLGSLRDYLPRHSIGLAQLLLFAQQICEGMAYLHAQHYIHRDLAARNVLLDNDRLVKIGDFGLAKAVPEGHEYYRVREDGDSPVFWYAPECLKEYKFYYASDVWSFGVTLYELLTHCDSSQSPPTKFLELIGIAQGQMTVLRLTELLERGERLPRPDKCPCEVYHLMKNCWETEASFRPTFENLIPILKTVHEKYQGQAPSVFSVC
Method in brief: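 Phosphorylation of 8 μM Omnia Y12 peptide followed kinetically by Sox fluorescence, ex 360/em 485 nm, every 50 s for 45 min. Enzyme: 2 nM Tyk2 kinase domain (aa 886–1187, His tag removed); ATP at 10 μM (Km app) or 1 mM; buffer HEPES pH 7.4 with MgCl2, Triton X-100, DTT. 10-point curves up to 10 μM, IC50 from 4-parameter logistic fit.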

T1 sequence (P23458 whole entry): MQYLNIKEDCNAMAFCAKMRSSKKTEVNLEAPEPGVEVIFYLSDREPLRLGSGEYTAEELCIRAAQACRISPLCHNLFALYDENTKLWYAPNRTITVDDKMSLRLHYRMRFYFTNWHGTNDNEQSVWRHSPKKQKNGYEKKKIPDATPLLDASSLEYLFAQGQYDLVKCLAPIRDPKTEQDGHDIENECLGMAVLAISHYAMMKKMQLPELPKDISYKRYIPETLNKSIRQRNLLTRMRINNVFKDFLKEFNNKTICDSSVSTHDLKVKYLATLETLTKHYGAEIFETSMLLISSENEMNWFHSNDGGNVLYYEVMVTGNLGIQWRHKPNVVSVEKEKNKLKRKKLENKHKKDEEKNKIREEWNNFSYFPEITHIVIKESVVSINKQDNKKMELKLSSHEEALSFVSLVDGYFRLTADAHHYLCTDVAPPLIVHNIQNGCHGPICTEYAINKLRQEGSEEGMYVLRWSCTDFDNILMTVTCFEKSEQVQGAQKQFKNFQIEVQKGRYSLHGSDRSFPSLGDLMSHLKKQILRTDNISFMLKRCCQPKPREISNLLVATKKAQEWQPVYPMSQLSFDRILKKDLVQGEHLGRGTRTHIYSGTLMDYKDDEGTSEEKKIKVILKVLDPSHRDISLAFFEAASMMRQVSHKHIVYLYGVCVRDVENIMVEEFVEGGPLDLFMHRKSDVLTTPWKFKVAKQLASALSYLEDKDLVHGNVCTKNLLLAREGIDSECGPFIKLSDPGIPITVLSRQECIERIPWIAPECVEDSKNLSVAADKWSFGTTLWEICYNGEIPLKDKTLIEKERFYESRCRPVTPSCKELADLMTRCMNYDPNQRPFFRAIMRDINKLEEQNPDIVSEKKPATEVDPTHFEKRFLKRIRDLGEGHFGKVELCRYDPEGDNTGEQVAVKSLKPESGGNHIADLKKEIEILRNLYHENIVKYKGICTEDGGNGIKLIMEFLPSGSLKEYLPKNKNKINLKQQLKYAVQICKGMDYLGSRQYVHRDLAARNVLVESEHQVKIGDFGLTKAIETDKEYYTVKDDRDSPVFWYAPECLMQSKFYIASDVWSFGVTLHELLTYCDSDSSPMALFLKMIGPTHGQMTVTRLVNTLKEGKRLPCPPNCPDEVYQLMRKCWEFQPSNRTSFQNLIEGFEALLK

SMILES | IC50 [1] [nM] | IC50 [2] [nM] | IC50 [3] [nM] | IC50 [4] [nM]
CCC1(n2cc(-c3nc(-c4cnn(C)c4)cc4nccn34)cn2)CN(S(=O)(=O)C(F)(F)F)C1 [Example 20, 5-(1-(3-ethyl-1-(trifluoromethylsulfonyl)azetidin-3-yl)-1H-pyrazol-4-yl)-7-(1-methyl-1H-pyrazol-4-yl)imidazo[1,2-c]pyrimidine] | 100 to 1000 | 10 to 100 | 100 to 1000 | 10 to 100
Cn1cc(-c2cc3nccn3c(-c3ccn([C@@H](CCF)[C@@H]4CC4(F)F)c3)n2)cn1 [Example 24, 5-(1-((S)-1-((S)-2,2-difluorocyclopropyl)-3-fluoropropyl)-1H-pyrrol-3-yl)-7-(1-methyl-1H-pyrazol-4-yl)imidazo[1,2-c]pyrimidine] | 10 to 100 | 10 to 100 | 100 to 1000 | < 10
COCCC(C1CCC1)n1cc(-c2nc(-c3cnn(C)c3)cc3nccn23)cn1 (centres unmarked) [Example 76, 5-(1-(1-cyclobutyl-3-methoxypropyl)-1H-pyrazol-4-yl)-7-(1-methyl-1H-pyrazol-4-yl)imidazo[1,2-c]pyrimidine] | > 1000 | 100 to 1000 | > 1000 | 100 to 1000
CCC(CCF)n1cc(-c2nc(-c3cnn(C)c3)cc3nccn23)cn1 (centres unmarked) [Example 57, 5-(1-(1-fluoropentan-3-yl)-1H-pyrazol-4-yl)-7-(1-methyl-1H-pyrazol-4-yl)imidazo[1,2-c]pyrimidine] | 100 to 1000 | 100 to 1000 | 100 to 1000 | 10 to 100
Cn1cc(-c2cc3nccn3c(-c3cnn(C4(CCO)CN(S(=O)(=O)C(F)(F)F)C4)c3)n2)cn1 [Example 3, 2-(3-(4-(7-(1-methyl-1H-pyrazol-4-yl)imidazo[1,2-c]pyrimidin-5-yl)-1H-pyrazol-1-yl)-1-((trifluoromethyl)sulfonyl)azetidin-3-yl)ethanol] | 100 to 1000 | 100 to 1000 | 100 to 1000 | 10 to 100
Cn1cc(-c2cc3nccn3c(-c3cnn([C@@H](CC=C(F)F)C4CC4)c3)n2)cn1 [Example 50, (S)-5-(1-(1-cyclopropyl-4,4-difluorobut-3-en-1-yl)-1H-pyrazol-4-yl)-7-(1-methyl-1H-pyrazol-4-yl)imidazo[1,2-c]pyrimidine] | 10 to 100 | < 10 | 10 to 100 | < 10
COCCC(C1CCCCC1)n1cc(-c2nc(-c3cnn(C)c3)cc3nccn23)cn1 (centres unmarked) [Example 71, 5-(1-(1-cyclohexyl-3-methoxypropyl)-1H-pyrazol-4-yl)-7-(1-methyl-1H-pyrazol-4-yl)imidazo[1,2-c]pyrimidine] | > 1000 | > 1000 | > 1000 | > 1000
O=S(=O)(N1CC(CCF)(n2cc(-c3nc(-c4cnn(C5CCOCC5)c4)cc4nccn34)cn2)C1)C(F)(F)F [Example 60, 5-(1-(3-(2-fluoroethyl)-1-((trifluoromethyl)sulfonyl)azetidin-3-yl)-1H-pyrazol-4-yl)-7-(1-(tetrahydro-2H-pyran-4-yl)-1H-pyrazol-4-yl)imidazo[1,2-c]pyrimidine] | 10 to 100 | < 10 | 100 to 1000 | < 10
COC(=O)CC(c1ccc(F)cc1)n1cc(-c2nc(-c3cnn(C)c3)cc3nccn23)cn1 (centres unmarked) [Example 80, methyl 3-(4-fluorophenyl)-3-(4-(7-(1-methyl-1H-pyrazol-4-yl)imidazo[1,2-c]pyrimidin-5-yl)-1H-pyrazol-1-yl)propanoate] | > 1000 | 100 to 1000 | > 1000 | 100 to 1000
CC=CCC1(n2cc(-c3nc(-c4cnn(C)c4)cc4nccn34)cn2)CN(S(=O)(=O)C(F)(F)F)C1 [Example 90, 5-(1-(3-(but-2-en-1-yl)-1-((trifluoromethyl)sulfonyl)azetidin-3-yl)-1H-pyrazol-4-yl)-7-(1-methyl-1H-pyrazol-4-yl)imidazo[1,2-c]pyrimidine] | 10 to 100 | 10 to 100 | 10 to 100 | 10 to 100
Cn1cc(-c2cc3nccn3c(-c3ccn(C4(CCF)CN(CC#N)C4)c3)n2)cn1 [Example 22, 2-(3-(2-fluoroethyl)-3-(3-(7-(1-methyl-1H-pyrazol-4-yl)imidazo[1,2-c]pyrimidin-5-yl)-1H-pyrrol-1-yl)azetidin-1-yl)acetonitrile] | 100 to 1000 | 100 to 1000 | 100 to 1000 | 10 to 100
Cn1cc(-c2cc3nccn3c(-c3cnn(C4(CCF)CN(S(=O)(=O)C(F)F)C4)c3)n2)cn1 [Example 51] | 10 to 100 | 10 to 100 | 10 to 100 | < 10
CSCCC(C1CC1)n1cc(-c2nc(-c3cnn(C)c3)cc3nccn23)cn1 (centres unmarked) [Example 62, 5-(1-(1-cyclopropyl-3-(methylthio)propyl)-1H-pyrazol-4-yl)-7-(1-methyl-1H-pyrazol-4-yl)imidazo[1,2-c]pyrimidine] | 100 to 1000 | 10 to 100 | 100 to 1000 | 10 to 100
COCCC1(n2cc(-c3nc(-c4cnn(C)c4)cc4nccn34)cn2)CCC1 [Example 53, 5-(1-(1-(2-methoxyethyl)cyclobutyl)-1H-pyrazol-4-yl)-7-(1-methyl-1H-pyrazol-4-yl)imidazo[1,2-c]pyrimidine] | > 1000 | 100 to 1000 | 100 to 1000 | 100 to 1000
Cn1cc(-c2cc3nccn3c(-c3cnn(C(CC=C(F)F)C4CC4)c3)n2)cn1 (centres unmarked) [Example 54, 5-(1-(1-cyclopropyl-4,4-difluorobut-3-en-1-yl)-1H-pyrazol-4-yl)-7-(1-methyl-1H-pyrazol-4-yl)imidazo[1,2-c]pyrimidine] | 10 to 100 | 10 to 100 | 10 to 100 | < 10
COCCC(C1CC1)n1cc(-c2nc(-c3cnn(C)c3)cc3nccn23)cn1 (centres unmarked) [Example 74, 5-(1-(1-cyclopropyl-3-methoxypropyl)-1H-pyrazol-4-yl)-7-(1-methyl-1H-pyrazol-4-yl)imidazo[1,2-c]pyrimidine] | > 1000 | 100 to 1000 | > 1000 | 10 to 100
CCCCC1(n2cc(-c3nc(-c4cnn(C)c4)cc4nccn34)cn2)CN(S(=O)(=O)C(F)(F)F)C1 [Example 83, 5-(1-(3-butyl-1-((trifluoromethyl)sulfonyl)azetidin-3-yl)-1H-pyrazol-4-yl)-7-(1-methyl-1H-pyrazol-4-yl)imidazo[1,2-c]pyrimidine] | 100 to 1000 | 100 to 1000 | 100 to 1000 | 10 to 100

Source: patent US20140228349A1, “5,7-SUBSTITUTED-IMIDAZO[1,2-C]PYRIMIDINES” (Array BioPharma Inc., priority 2011, published 2014)
